Source: patent US9422254B2, “Methoxyacrylate-based fungicide and methods for preparing and using the same” (priority 2008, dated 2016)

What was measured:
[1] = test system: Colletotrichum gloeosporioides (first entry, r49); experiment: In vitro inhibition, pathogens from tropical plants; type: cell-based
Description: (§1) 5 wt % formulation of the active compound of Formula (I) was prepared into a solution (300 mg/L). To a sterilized Erlenmeyer flask, 2 mL of the solution and 18 mL of PDA culture medium (50° C.) were added. The mixture was shaken uniformly and dumped into two dishes whose diameter was 9 cm to yield two toxic PDA culture mediums having a concentration of 30 mg/L. Various cultured pathogens were punched at the edge of colony by a puncher having a diameter of 5 mm respectively, and the obtained pieces were transferred to the center of the toxic PDA culture medium by an inoculating needle and cultured in an incubator at 25° C. Repeat the above steps. According to the growth status of CK colony, the colony diameter of pathogens was measured by crossing method with a caliper and thereby a corrected inhibition percentage was calculated.
(§2) For each colony, diameter was measured twice by crossing method and the average was practicable. The colony growth inhibition rate was calculated as follows: Colony growth inhibition rate %=(diameter of CK colony−diameter of target colony)×100/diameter of CK colony
(§3) Following the above method, as targets 17 pathogens originated from tropical plants were tested. The pathogens were Rhizopus sp., Aspergillus, Colletotrichum gloeosporioides Penz, Banana Fusarium wilt, Colletouichum coccodes, Hughas, B. heveas, Cucumber mosaic virusstrain banana, Banana Sigatoka Leaf Spot Disease, Colletotrichum gloeosporioides, Colletotrichum musae (Berk & Curt) Arx, Botryodiplodia theobromae, Cladosporium cucumerinum Ellis et Arthur, Periconia hevenae, Colletotrichum gloeosporioides, B. cinerea, Diplodia natalensis, and Curvularia.

[2] = test system: Banana Sigatoka Leaf Spot Disease; experiment: as above; type: cell-based
Description: as §1, §2, §3

Periconia hevenae = experiment: as above; type: cell-based
Description: as §1, §2, §3

Curvularia = experiment: as above; type: cell-based
Description: as §1, §2, §3

B. heveas = experiment: as above; type: cell-based
Description: as §1, §2, §3

[3] = test system: Colletotrichum musae (Berk & Curt) Arx; experiment: as above; type: cell-based
Description: as §1, §2, §3

Aspergillus = experiment: as above; type: cell-based
Description: as §1, §2, §3

[4] = test system: Colletotrichum gloeosporioides (second entry, r74); experiment: as above; type: cell-based
Description: as §1, §2, §3

[5] = test system: Colletotrichum gloeosporioides Penz; experiment: as above; type: cell-based
Description: as §1, §2, §3

[6] = test system: Cucumber mosaic virusstrain banana; experiment: as above; type: cell-based
Description: as §1, §2, §3

[7] = test system: Pseudoperonospora cubensis; experiment: Fungicidal activity on potted cucumber, downy mildew; type: in vivo
Description: 1. Fungicidal Activity Assay on Potted Plants at Room Temperature
Take cucumber downy mildew and powdery mildew as examples, the assay were carried out as follows:
1) Pseudoperonospora cubensis: Pathogen of Cucumber Downy Mildew
Two cucumber seedlings (the growing point had been removed) having the same growth status and in the true leaf stage were collected, sprayed with the compound of Formula (I), and dried naturally for 24 hrs for inoculation. Fresh cucumber leaves infected by downy mildew were collected, and sporangium on the back was rinsed with distilled water (about 10° C.) dipped with a brush. The obtained sporangium was prepared into a suspension (2-3×10^5 cells/mL). The suspension was sprayed uniformly with an inoculation sprayer (0.1 MPa) to the naturally-dried cucumber seedlings. Subsequently, the seedlings were cultured in an artificial climate chamber. The relative humidity was maintained at 100%, with temperature of between 15 and 20° C. 24 hrs later, the relative humidity was maintained at 90%, with temperature of between 15 and 24° C. 5 days later, compared with the control, the disease of the cucumber seedlings was graded. Based on the resultant disease index, the efficacy was calculated.
The grading standard follows “Guidelines on efficacy evaluation of pesticides”, and the efficacy is calculated on the basis of the disease index.

[8] = target: T1, cytochrome bc1 complex of pig heart (Sus scrofa, UniProt P24964); experiment: Enzyme activity test, Complex III; type: biochemical
T1 construct: The test target is cytochrome bc1 complex of pig heart; from tissue; host or cells: pig heart
Description: Take NADH oxidase (NOX), succinate-cytochrome C oxidase (SCO), and Complex III as target enzymes, the inhibitory activity of the compound of Formula (I) was tested.
^b The test target is cytochrome bc1 complex of pig heart.

[9] = test system: Cucumber gray mold (F-109); experiment: In vivo micro-screening assay
Description: In Vivo Micro-Screening Assay
To further study the fungicidal spectrum of the compound of Formula (I), indoor in vivo micro-screening assay were carried out on cucumber gray mold, cucumber scab, cucumber sclerotinia rot, cucumber brown spot, pepper phytophthora blight, and rice sheath blight.
Medicament to be tested and medicament of control groups were prepared as needed in a sunny morning. Cucumber gray mold, cucumber scab, cucumber brown spot, cucumber sclerotinia rot, and rice sheath blight were medicated by spray, and after air dry, pathogens of cucumber scab and of cucumber brown spot were inoculated through spraying spore suspension respectively, pathogens of cucumber gray mold, of cucumber sclerotinia rot, and of rice sheath blight were inoculated through lawn foliage. Pepper phytophthora blight was medicated and inoculated by root-irrigation. Subsequently, all seedlings were cultured in wet environment.
After the disease of control groups were serious, spot area, disease index, and the diseased seedling rate were investigated to calculate the efficacy. Cucumber scab, cucumber brown spot, and pepper phytophthora blight were investigated by grading method. The spot extension area of cucumber gray mold and of rice sheath blight was investigated. The diseased seedling rate of cucumber sclerotinia rot was investigated. Disease index=Σ(amount of infected diseased leaves in a grade×relative value of the grade)×100/(total amount of leaves×9); Diseased seedling rate (%)=(total amount of seedlings−amount of diseased seedlings)/total amount of seedlings×100% Prevention and treatment effect (%)=(disease of control group−disease of experiment group)/disease of control group×100%

[10] = 0.1 mg/L, read-out: Inhibition rate (%)
[11] = 1 mg/L, read-out: Inhibition rate (%)
[12] = 5 mg/L, read-out: Inhibition rate (%)
[13] = 10 mg/L, read-out: Inhibition rate (%)
[14] = 20 mg/L, read-out: Inhibition rate (%)
[15] = 15 mg/L, read-out: Inhibition rate (%)
[16] = 25 mg/L, read-out: Inhibition rate (%)
[17] = 50 mg/L, read-out: Inhibition rate (%)
[18] = Pseudoperonospora cubensis, secondary screening

T1 sequence (P24964 whole entry, one chain of several): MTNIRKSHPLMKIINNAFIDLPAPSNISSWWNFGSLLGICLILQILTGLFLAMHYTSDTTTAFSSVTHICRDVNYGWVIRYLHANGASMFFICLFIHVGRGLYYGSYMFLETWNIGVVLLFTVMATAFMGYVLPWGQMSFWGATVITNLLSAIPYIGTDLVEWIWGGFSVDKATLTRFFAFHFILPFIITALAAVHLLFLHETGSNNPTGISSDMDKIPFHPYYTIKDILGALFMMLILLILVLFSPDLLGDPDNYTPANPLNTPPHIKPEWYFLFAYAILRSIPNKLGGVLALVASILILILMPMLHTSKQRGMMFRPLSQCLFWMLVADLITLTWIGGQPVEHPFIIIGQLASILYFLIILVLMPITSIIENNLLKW

Work on `CO/C=C(/C(=O)OC)c1ccccc1CSc1nc2cc(OC)ccc2s1` [Compound of Formula (I), (E)-methyl 3-methoxy-2-(2-((5-methoxy-benzothiazol-2-ylthio)methyl)phenyl)acrylate] yielded an EC50 [1] of 1.97 µg/mL, an inhibition at 0.1 µg/mL [1, 10] of 18.2% and an inhibition at 1 µg/mL [1, 11] of 42.4%. For the same compound, the inhibition at 5 µg/mL [1, 12] was 55.9%, the inhibition at 10 µg/mL [1, 13] was 69.4% and the inhibition at 20 µg/mL [1, 14] was 83.2%. The EC50 [2] was 1.5 µg/mL, the inhibition at 0.1 µg/mL [2, 10] was 17.2% and the inhibition at 1 µg/mL [2, 11] was 43.5%. For the same compound, the inhibition at 5 µg/mL [2, 12] was 63.7%, the inhibition at 10 µg/mL [2, 13] was 77.9% and the inhibition at 20 µg/mL [2, 14] was 85.8%. For the same compound, the EC50 (Periconia hevenae) was 0.378 µg/mL, the inhibition at 0.1 µg/mL (Periconia hevenae; [10]) was 33.2% and the inhibition at 1 µg/mL (Periconia hevenae; [11]) was 66.4%. For the same compound, the inhibition at 5 µg/mL (Periconia hevenae; [12]) was 74.2%, the inhibition at 10 µg/mL (Periconia hevenae; [13]) was 77.6% and the inhibition at 15 µg/mL (Periconia hevenae; [15]) was 81.7%. The EC50 (Curvularia) was 0.505 µg/mL, the inhibition at 0.1 µg/mL (Curvularia; [10]) was 28.8% and the inhibition at 1 µg/mL (Curvularia; [11]) was 63.5%. For the same compound, the inhibition at 5 µg/mL (Curvularia; [12]) was 75.9%, the inhibition at 10 µg/mL (Curvularia; [13]) was 76.6% and the inhibition at 15 µg/mL (Curvularia; [15]) was 80.6%. For the same compound, the EC50 (B. heveas) was 1.99 µg/mL, the inhibition at 0.1 µg/mL (B. heveas; [10]) was 9.09% and the inhibition at 1 µg/mL (B. heveas; [11]) was 43.9%. For the same compound, the inhibition at 5 µg/mL (B. heveas; [12]) was 61.4%, the inhibition at 10 µg/mL (B. heveas; [13]) was 70.5% and the inhibition at 15 µg/mL (B. heveas; [15]) was 81.4%. The EC50 [3] was 1.66 µg/mL, the inhibition at 0.1 µg/mL [3, 10] was 19.1% and the inhibition at 1 µg/mL [3, 11] was 37.2%. It also gave an inhibition at 5 µg/mL [3, 12] of 64.5%, an inhibition at 10 µg/mL [3, 13] of 78.7% and an inhibition at 20 µg/mL [3, 14] of 85.8%. For the same compound, the EC50 (Aspergillus) was 5.03 µg/mL, the inhibition at 0.1 µg/mL (Aspergillus; [10]) was 10.6% and the inhibition at 1 µg/mL (Aspergillus; [11]) was 27.4%. For the same compound, the inhibition at 5 µg/mL (Aspergillus; [12]) was 47.8%, the inhibition at 10 µg/mL (Aspergillus; [13]) was 58.4% and the inhibition at 25 µg/mL (Aspergillus; [16]) was 71.4%. The inhibition at 50 µg/mL (Aspergillus; [17]) was 86.1%, the EC50 [4] was 6.92 µg/mL and the inhibition at 0.1 µg/mL [4, 10] was 7.12%. It also gave an inhibition at 1 µg/mL [4, 11] of 19.3%, an inhibition at 5 µg/mL [4, 12] of 33.8% and an inhibition at 10 µg/mL [4, 13] of 55.2%. It also gave an inhibition at 20 µg/mL [4, 14] of 87.2%, an EC50 [5] of 4.63 µg/mL and an inhibition at 0.1 µg/mL [5, 10] of 16.7%. For the same compound, the inhibition at 1 µg/mL [5, 11] was 31.1%, the inhibition at 5 µg/mL [5, 12] was 50.2% and the inhibition at 10 µg/mL [5, 13] was 54.9%. For the same compound, the inhibition at 25 µg/mL [5, 16] was 69.3%, the inhibition at 50 µg/mL [5, 17] was 80.9% and the EC50 [6] was 1.92 µg/mL. For the same compound, the inhibition at 0.1 µg/mL [6, 10] was 9.84%, the inhibition at 1 µg/mL [6, 11] was 40.2% and the inhibition at 5 µg/mL [6, 12] was 62.3%. The inhibition at 10 µg/mL [6, 13] was 76.6%, the inhibition at 15 µg/mL [6, 15] was 84.8% and the “Efficacy (%)” value ([7]; 3.125 mg/L, secondary screening) was 69.92%. For the same compound, the “Efficacy (%)” value ([7]; 6.25 mg/L, secondary screening) was 82.89%, the “Efficacy (%)” value ([7]; 12.5 mg/L, Table 1) was 87.34% and the “Efficacy (%)” value ([7]; 12.5 mg/L, secondary screening) was 91.50%. The “Efficacy (%)” value ([7]; 25 mg/L, Table 1) was 94.16%, the “Efficacy (%)” value ([7]; 25 mg/L, secondary screening) was 98.15% and the “Efficacy (%)” value ([7]; 50 mg/L, Table 1) was 100%. The “Efficacy (%)” value ([7]; 50 mg/L, secondary screening) was 100%, the “Efficacy (%)” value ([7]; 100 mg/L, Table 1) was 100% and the “Efficacy (%)” value ([7]; 200 mg/L, Table 1) was 100%. The EC50 [7, 18] was 1.52 µg/mL, the EC90 [7, 18] was 9.76 µg/mL and the “preventive effect” value ([7]; downy mildew) was “good preventive effect”. The IC50 [8] was 4 nM, the “inhibitory activity on Complex III compared with azoxystrobin” value ([8]; azoxystrobin as control agent) was “much higher inhibitory activity” and the “Efficacy (%)” value ([9]; 100 mg/L) was 92.19%. For the same compound, the “Spot area (mm^2)” value ([9]; 100 mg/L) was 8.03 mm^2, the “Efficacy (%)” value ([9]; 500 mg/L) was 96.43% and the “Spot area (mm^2)” value ([9]; 500 mg/L) was 3.67 mm^2. For the same compound, the “prevention and treatment effect” value ([9]; cucumber gray mold, strains not distinguished) was “good prevention and treatment effect”.
